From patent publication US20080182874A1, “Novel Compounds” (priority 2004, published 2008)
Read-outs that look alike come from different tables or passages of the source.

What was measured:
P2X7 receptor = biological target: T1, P2X7 receptor (Homo sapiens, UniProt Q99572); test: bbATP-induced ethidium bromide uptake in THP-1 cells (P2X7 antagonist activity); type: cell-based
T1 construct: 200 μl of a suspension of THP-1 cells (2.5×10^6 cells/ml) containing 10^−4M ethidium bromide; endogenous in cells; host or cells: THP-1 cells
T1 sequence (Q99572 1-595): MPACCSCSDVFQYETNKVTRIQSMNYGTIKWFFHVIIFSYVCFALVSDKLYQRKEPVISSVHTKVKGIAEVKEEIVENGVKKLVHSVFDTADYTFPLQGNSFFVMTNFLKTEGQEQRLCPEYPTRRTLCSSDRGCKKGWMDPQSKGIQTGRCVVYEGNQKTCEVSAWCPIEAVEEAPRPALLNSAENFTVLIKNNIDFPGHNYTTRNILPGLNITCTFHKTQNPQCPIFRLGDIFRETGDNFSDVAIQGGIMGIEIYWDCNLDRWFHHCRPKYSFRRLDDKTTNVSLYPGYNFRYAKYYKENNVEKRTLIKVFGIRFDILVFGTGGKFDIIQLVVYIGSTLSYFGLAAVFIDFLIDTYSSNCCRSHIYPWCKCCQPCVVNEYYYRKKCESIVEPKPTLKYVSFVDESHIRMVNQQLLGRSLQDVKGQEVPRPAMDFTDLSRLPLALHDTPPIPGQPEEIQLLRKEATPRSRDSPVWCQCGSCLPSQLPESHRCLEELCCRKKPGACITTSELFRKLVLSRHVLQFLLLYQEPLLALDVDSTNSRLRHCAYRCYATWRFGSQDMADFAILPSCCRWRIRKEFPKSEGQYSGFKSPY
Source text: Certain compounds such as benzoylbenzoyl adenosine triphosphate (bbATP) are known to be agonists of the P2X7 receptor, effecting the formation of pores in the plasma membrane (Drug Development Research (1996), 37(3), p. 126). Consequently, when the receptor is activated using bbATP in the presence of ethidium bromide (a fluorescent DNA probe), an increase in the fluorescence of intracellular DNA-bound ethidium bromide is observed. The increase in fluorescence can be used as a measure of P2X7 receptor activation and therefore to quantify the effect of a compound on the P2X7 receptor.
In this manner, each of the title compounds of the Examples was tested for antagonist activity at the P2X7 receptor. […] The plate was covered with a plastics sheet and incubated at 37° C. for one hour. The plate was then read in a Perkin-Elmer fluorescent plate reader, excitation 520 nm, emission 595 nm, slit widths: Ex 15 nm, Em 20 nm. For the purposes of comparison, bbATP (a P2X7 receptor agonist) and pyridoxal 5-phosphate (a P2X7 receptor antagonist) were used separately in the test as controls.

| melting point [°C] | IC50 (P2X7 receptor; THP-1 cells, 10^-5M bbATP agonist, ethidium bromide fluorescence, 37° C. for one hour, negative logarithm of concentration reducing bbATP agonist activity by 50%, read-out: pIC50 (converted)) [µM] | SMILES | IC50 (P2X7 receptor) [µM] |
| --- | --- | --- | --- |
| 157 to 160 |  | O=C(NCC12CC3CC(CC(C3)C1)C2)c1c(Cl)ccc2nc(N3CCC[C@@H]3C(=O)O)ccc12 [Example 2, 1-[6-Chloro-5-[[(tricyclo[3.3.1.1^3,7]dec-1-ylmethyl)amino]carbonyl]-2-quinolinyl]-D-proline] |  |
| 294 to 295 |  | O=C(NCC12CC3CC(CC(C3)C1)C2)c1c(Cl)ccc2nc(N3CCC(n4cn[nH]c4=O)CC3)ccc12 [Example 4, 6-Chloro-2-[4-(1,5-dihydro-5-oxo-4H-1,2,4-triazol-4-yl)-1-piperidinyl]-N-(tricyclo[3.3.1.1^3,7]dec-1-ylmethyl)-5-quinolinecarboxamide] |  |
| 179 to 183 |  | O=C(O)CN1CCN(c2ccc3c(C(=O)NCC45CC6CC(CC(C6)C4)C5)c(Cl)ccc3n2)CC1 [Example 5, 4-[6-Chloro-5-[[(tricyclo[3.3.1.1^3,7]dec-1-ylmethyl)amino]carbonyl]-2-quinolinyl]-1-piperazineacetic acid] |  |
| 174 to 177 |  | O=C(NCC12CC3CC(CC(C3)C1)C2)c1c(Cl)ccc2nc(N3CC[C@H](NCCc4nnn[nH]4)C3)ccc12 [Example 6, 6-Chloro-2-[(3S)-3-[[2-(2H-tetrazol-5-yl)ethyl]amino]-1-pyrrolidinyl]-N-(tricyclo[3.3.1.1^3,7]dec-1-ylmethyl)-5-quinolinecarboxamide] |  |
| 231 to 235 |  | O=C(NCC12CC3CC(CC(C3)C1)C2)c1c(Cl)ccc2nc(N3CCC(C(=O)O)CC3)ccc12 [Example 7, 1-[6-Chloro-5-[[(tricyclo[3.3.1.1^3,7]dec-1-ylmethyl)amino]carbonyl]-2-quinolinyl]-4-piperidinecarboxylic acid] |  |
| 212 to 214 |  | O=C(O)CC1CCN(c2ccc3c(C(=O)NCC45CC6CC(CC(C6)C4)C5)c(Cl)ccc3n2)CC1 [Example 8, 1-[6-Chloro-5-[[(tricyclo[3.3.1.1^3,7]dec-1-ylmethyl)amino]carbonyl]-2-quinolinyl]-4-piperidineacetic acid] |  |
| 200 to 204 |  | O=C(NCC12CC3CC(CC(C3)C1)C2)c1c(Cl)ccc2nc(N3CCC(O)(C(=O)O)CC3)ccc12 [Example 17, 1-[6-Chloro-5-[[(tricyclo[3.3.1.1^3,7]dec-1-ylmethyl)amino]carbonyl]-2-quinolinyl]-4-hydroxy-4-piperidinecarboxylic acid] |  |
| 235 to 237 |  | O=C(NCC12CC3CC(CC(C3)C1)C2)c1c(Cl)ccc2nc(N3CCC(C(=O)O)(c4ccccc4)CC3)ccc12 [Example 18, 1-[6-Chloro-5-[[(tricyclo[3.3.1.1^3,7]dec-1-ylmethyl)amino]carbonyl]-2-quinolinyl]-4-phenyl-4-piperidinecarboxylic acid] |  |
| 175 to 180 |  | O=C(NCC12CC3CC(CC(C3)C1)C2)c1c(Cl)ccc2nc(N3C[C@@H]4[C@H](C3)[C@H]4C(=O)O)ccc12 [Example 19, (1R,5S)-3-[6-Chloro-5-[[(tricyclo[3.3.1.1^3,7]dec-1-ylmethyl)amino]carbonyl]-2-quinolinyl]-3-azabicyclo[3.1.0]hexane-6-carboxylic acid] |  |
| 170 to 173 |  | CS(=O)(=O)NC(=O)C1CCN(c2ccc3c(C(=O)NCC45CC6CC(CC(C6)C4)C5)c(Cl)ccc3n2)CC1 [Example 20, 6-Chloro-2-[4-[[(methylsulfonyl)amino]carbonyl]-1-piperidinyl]-N-(tricyclo[3.3.1.1^3,7]dec-1-ylmethyl)-5-quinolinecarboxamide] |  |
| 189 to 196 |  | O=C(NCC12CC3CC(CC(C3)C1)C2)c1c(Cl)ccc2nc(N3CCC(C(=O)NO)CC3)ccc12 [Example 21, 6-chloro-2-[4-[(hydroxyamino)carbonyl]-1-piperidinyl]-N-(tricyclo[3.3.1.1^3,7]dec-1-ylmethyl)-5-quinolinecarboxamide] |  |
| 251 to 252 |  | O=C(O)CCNc1ccc2c(C(=O)NCC34CC5CC(CC(C5)C3)C4)c(Cl)ccc2n1 [Example 27, N-[6-Chloro-5-[[(tricyclo[3.3.1.1^3,7]dec-1-ylmethyl)amino]carbonyl]-2-quinolinyl]-β-alanine] |  |

Further lines, the compound ahead of its results:

| SMILES | melting point [°C] | IC50 (P2X7 receptor; THP-1 cells, 10^-5M bbATP agonist, ethidium bromide fluorescence, 37° C. for one hour, negative logarithm of concentration reducing bbATP agonist activity by 50%, read-out: pIC50 (converted)) [µM] | IC50 (P2X7 receptor) [µM] |
| --- | --- | --- | --- |
| O=C(CC12CC3CC(CC(C3)C1)C2)Nc1c(Cl)ccc2nc(N3CCC(C(=O)O)CC3)ccc12 [Example 1, 1-[6-Chloro-5-[(tricyclo[3.3.1.1^3,7]dec-1-ylacetyl)amino]-2-quinolinyl]-4-piperidinecarboxylic acid] | 240 to 241 |  |  |
| O=C(NCC12CC3CC(CC(C3)C1)C2)c1c(Cl)ccc2nc(N3CCC[C@@H](C(=O)O)C3)ccc12 [Example 3, 1-[6-Chloro-5-[[(tricyclo[3.3.1.1^3,7]dec-1-ylmethyl)amino]carbonyl]-2-quinolinyl]-(3R)-3-piperidinecarboxylic acid] | 257 to 262 |  | 0.0794 |
| O=C(NCC12CC3CC(CC(C3)C1)C2)c1c(Cl)ccc2nc(CCCCc3nnn[nH]3)ccc12 [Example 9, 6-Chloro-2-[4-(2H-tetrazol-5-yl)butyl]-N-(tricyclo[3.3.1.1^3,7]dec-1-ylmethyl)-5-quinolinecarboxamide] | 221 |  |  |
| O=C(O)CCN[C@H]1CCCN(c2ccc3c(C(=O)NCC45CC6CC(CC(C6)C4)C5)c(Cl)ccc3n2)C1 [Example 12, N-[(3S)-1-[6-Chloro-5-[[(tricyclo[3.3.1.1^3,7]dec-1-ylmethyl)amino]carbonyl]-2-quinolinyl]-3-piperidinyl]-β-alanine] | 176 to 189 |  | 0.0158 |
| O=C(O)c1ccccc1-c1ccc2c(C(=O)NCC34CC5CC(CC(C5)C3)C4)c(Cl)ccc2n1 [Example 23, 2-[6-Chloro-5-[[(tricyclo[3.3.1.1^3,7]dec-1-ylmethyl)amino]carbonyl]-2-quinolinyl]-benzoic acid] | 156 to 158 |  |  |
| O=C(O)c1cccc(-c2ccc3c(C(=O)NCC45CC6CC(CC(C6)C4)C5)c(Cl)ccc3n2)c1 [Example 24, 3-[6-Chloro-5-[[(tricyclo[3.3.1.1^3,7]dec-1-ylmethyl)amino]carbonyl]-2-quinolinyl]-benzoic acid] |  | 0.0631 |  |
| O=C(O)c1ccc(-c2ccc3c(C(=O)NCC45CC6CC(CC(C6)C4)C5)c(Cl)ccc3n2)cc1 [Example 25, 4-[6-Chloro-5-[[(tricyclo[3.3.1.1^3,7]dec-1-ylmethyl)amino]carbonyl]-2-quinolinyl]-benzoic acid] | 316 to 317 |  |  |
| O=C(O)c1cncc(-c2ccc3c(C(=O)NCC45CC6CC(CC(C6)C4)C5)c(Cl)ccc3n2)c1 [Example 28, 5-[6-Chloro-5-[[(tricyclo[3.3.1.1^3,7]dec-1-ylmethyl)amino]carbonyl]-2-quinolinyl]-3-pyridinecarboxylic acid] | 247 |  |  |
